Data published in patent publication US20210101928A1 (Sage Therapeutics, Inc., priority 2017, published 2021).

The compounds below were run against GABAA receptor ([35S]-TBPS binding, rat brain cortical membranes) (assay: Steroid inhibition of [35S]-TBPS binding). Settings: Table II-2, 3 nM [35S]-TBPS, in the presence of 5 mM GABA, read-out: TBPS IC50.
Summary of the method: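 Sprague-Dawley rat cortical P2 membranes incubated 90 min at room temperature with 3 nM [35S]-TBPS, […] GABA and test compound (0.5% DMSO) in 200 mM NaCl/50 mM Na-K phosphate pH 7.4. Nonspecific binding with […] TBPS; filtration and scintillation counting; IC50 and Imax from nonlinear fits.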

Question: Which IC50 does the source give for CC[C@]12CC[C@@](C)(O)C[C@H]1CC[C@H]1[C@@H]3CC[C@H](C(=O)c4ccccc4C)[C@@]3(C)CC[C@@H]12 [II-G5, ((3R,5R,8S,9S,10S,13S,14S,17S)-10-ethyl-3-hydroxy-3,13-dimethylhexadecahydro-1H-cyclopenta [a]phenanthren-17-yl)(o-tolyl)methanone] here?
Answer: 10 to 100 nM

Same assay, conditions: Table III-1 (biological data), 3 nM [35S]-TBPS, in the presence of 5 mM GABA, read-out: TBPS IC50

Question: How did the IC50 turn out when CC[C@]12CC[C@H]3[C@@H](CC[C@@H]4C[C@](C)(O)CC[C@@H]43)[C@@H]1CC[C@@H]2C(=O)Cn1cc(C#N)cn1 [III-A10, 1-(2-((3R,5R,8R,9R,10S,13S,14S,17S)-13-ethyl-3-hydroxy-3-methylhexadecahydro-1H-cyclopenta[a]phenanthren-17-yl)-2-oxoethyl)-1H-pyrazole-4-carbonitrile] was run?
Answer: < 10 nM

Question: With CC[C@]12CC[C@H]3[C@@H](CC[C@H]4C[C@@](O)(COC)CC[C@@H]43)[C@@H]1CC[C@@H]2C(C)=O [III-A20, 1-((3R,5S,8R,9R,10S,13S,14S,17S)-13-ethyl-3-hydroxy-3-(methoxymethyl)hexadecahydro-1H-cyclopenta [a]phenanthren-17-yl)ethan-1-one] as the compound, how does the IC50 read?
Answer: 10 to 100 nM

Question: How did the IC50 turn out when CC[C@]12CC[C@H]3[C@@H](CC[C@H]4C[C@@](O)(COC)CC[C@@H]43)[C@@H]1CC[C@@H]2C(=O)Cn1nnc(C)n1 [III-A22, 1-((3R,5S,8R,9R,10S,13S,14S,17S)-13-ethyl-3-hydroxy-3-(methoxymethyl)hexadecahydro-1H-cyclopenta [a]phenanthren-17-yl)-2-(5-methyl-2H-tetrazol-2-yl)ethan-1-one] was run?
Answer: < 10 nM

Question: CC[C@]12CC[C@H]3[C@@H](CC[C@H]4C[C@@](O)(COC)CC[C@@H]43)[C@@H]1CC[C@@H]2C(=O)Cn1nnnc1C [III-A23, 1-((3R,5S,8R,9R,10S,13S,14S,17S)-13-ethyl-3-hydroxy-3-(methoxymethyl)hexadecahydro-1H-cyclopenta[a]phenanthren-17-yl)-2-(5-methyl-1H-tetrazol-1-yl)ethan-1-one] was tested. Which IC50 did it give?
Answer: 100 to 1000 nM

Question: For CC[C@]12CC[C@H]3[C@@H](CC[C@@H]4C[C@](C)(O)CC[C@@]43C)[C@@H]1CC[C@@H]2C(C)=O [III-A30, 1-((3R,5R,8R,9S,10S,13S,14S,17S)-13-ethyl-3-hydroxy-3,10-dimethylhexadecahydro-1H-cyclopenta [a]phenanthren-17-yl)ethan-1-one], which IC50 is on record?
Answer: < 10 nM

Question: For CC[C@]12CC[C@H]3[C@@H](CC[C@@H]4C[C@](C)(O)CC[C@@]43C)[C@@H]1CC[C@@H]2C(=O)Cn1nnc(C)n1 [III-A33], which IC50 is on record?
Answer: < 10 nM

Question: Which IC50 does the source give for CC[C@]12CC[C@H]3[C@@H](CC[C@@H]4C[C@@](O)(COC)CC[C@@H]43)[C@@H]1CC[C@@H]2C(C)=O [III-B15, 1-((3R,5R,8R,9R,10S,13S,14S,17S)-13-ethyl-3-hydroxy-3-(methoxymethyl)hexadecahydro-1H-cyclopenta[a]phenanthren-17-yl)ethan-1-one] here?
Answer: 10 to 100 nM

Question: Which IC50 does the source give for CC[C@]12CC[C@H]3[C@@H](CC[C@@H]4C[C@@](O)(COC)CC[C@@H]43)[C@@H]1CC[C@@H]2C(=O)Cn1cc(C#N)cn1 [III-B17, 1-(2-((3R,5R,8R,9R,10S,13S,14S,17S)-13-ethyl-3-hydroxy-3-(methoxymethyl)hexadecahydro-1H-cyclopenta[a]phenanthren-17-yl)-2-oxoethyl)-1H-pyrazole-4-carbonitrile] here?
Answer: 10 to 100 nM

Question: For COC[C@]12CC[C@H]3[C@@H](CC[C@@H]4C[C@](C)(O)CC[C@@H]43)[C@@H]1CC[C@@H]2C(C)=O [III-C11, 1-((3R,5R,8R,9R,10S,13R,14S,17S)-3-hydroxy-13-(methoxymethyl)-3-methylhexadecahydro-1H-cyclopenta[a]phenanthren-17-yl)ethan-1-one], which IC50 is on record?
Answer: 10 to 100 nM

Question: How did the IC50 turn out when COC[C@]12CC[C@H]3[C@@H](CC[C@@H]4C[C@](C)(O)CC[C@@H]43)[C@@H]1CC[C@@H]2C(=O)Cn1cc(C#N)cn1 [III-C13, 1-(2-((3R,5R,8R,9R,10S,13R,14S,17S)-3-hydroxy-13-(methoxymethyl)-3-methylhexadecahydro-1H-cyclopenta[a]phenanthren-17-yl)-2-oxoethyl)-1H-pyrazole-4-carbonitrile] was run?
Answer: < 10 nM
